The numbers were not newly measured in patent publication US20110009373A1, “COMPOSITION COMPRISING A COMBINATION OF AN AROMATASE INHIBITOR, A PROGESTIN AND AN OESTROGEN AND ITS USE FOR THE TREATMENT OF ENDOMETRIOSIS” (ASTRAZENECA AB, priority 2003, published 2011), which cites them from elsewhere.

The data set deals with endometriotic lesion. The settings on record: addition of oestrogen to letrozole; wild type mice and aromatase knockout mice.

Take `N#Cc1ccc(C(c2ccc(C#N)cc2)n2cncn2)cc1` [letrozole]: the Endometriotic lesion sizes entry was “increases in the endometriotic lesion sizes”.
